Assay results published in PubChem BioAssay AID675 (The Scripps Research Institute Molecular Screening Center, 2007).
Activity calls are given as the source filed them.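 Rule for the calls: active = EC50 at or below a set limit for turning on the RORA orphan receptor reporter; inactive = the rest.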

Molecular target: Nuclear receptor ROR-alpha (Homo sapiens) (UniProt P35398)
Assay: activators of RORA ligand-binding domain fusion – cell-based, CHO-K1, Gal4-RORA LBD, luciferase luminescence, counter-screen for SF-1 activator project, dose response (AID 675)
Conditions: CHO-K1 RORA luciferase reporter, luminescence activation

Chain of Nuclear receptor ROR-alpha (Homo sapiens) (P35398 whole entry, looked up, the tested form may be a part): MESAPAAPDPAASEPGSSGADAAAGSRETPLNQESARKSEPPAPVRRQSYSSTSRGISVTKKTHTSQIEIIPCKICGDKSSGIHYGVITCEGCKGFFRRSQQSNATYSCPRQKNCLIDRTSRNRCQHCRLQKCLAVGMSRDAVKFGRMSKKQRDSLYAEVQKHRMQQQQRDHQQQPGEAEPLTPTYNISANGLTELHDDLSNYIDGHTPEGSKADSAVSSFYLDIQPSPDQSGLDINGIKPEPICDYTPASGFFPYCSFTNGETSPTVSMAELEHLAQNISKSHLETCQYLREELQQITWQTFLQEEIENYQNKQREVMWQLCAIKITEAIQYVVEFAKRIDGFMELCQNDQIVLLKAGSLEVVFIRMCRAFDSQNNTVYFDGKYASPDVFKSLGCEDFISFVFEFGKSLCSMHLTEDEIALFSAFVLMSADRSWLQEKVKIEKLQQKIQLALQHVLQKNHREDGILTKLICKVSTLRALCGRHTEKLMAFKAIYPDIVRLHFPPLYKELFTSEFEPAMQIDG

EC50	Structure (SMILES)
> 33 µM (inactive)	COc1cc(C2C3C(=O)N(c4ccccc4)C(=O)C3ON2c2ccccc2)ccc1O (stereo not drawn)
1.61 µM	COC(=O)c1ccc(/C(O)=C(\C#N)c2nc3ccccc3s2)cc1
0.749 µM	COc1ccc(C(=O)/C=C/Nc2cccc(C)n2)cc1OC
4.13 µM	Cc1ccc(C2/C(=C(\O)c3cnn(-c4ccccc4)c3C)C(=O)C(=O)N2CCN(C)C)o1 (stereo not drawn)

The remaining lines, values behind:

Structure (SMILES)	EC50
O=C1CCCC(O)=C1C=Nc1ccc(O)cc1	> 99 µM (inactive)
C/C(N)=C(/C#N)C(=O)CSc1ccc2c(c1)OCCO2	1.17 µM
CC1(C)CC(=O)C(C=Nc2ccc3[nH]ncc3c2)=C(O)C1	9.88 µM
CC1(C)CC(=O)C(C=Nc2ccccc2)=C(O)C1	> 99 µM (inactive)
